Consider 17 compounds from publication PMC8151276, “An Integrated Approach toward NanoBRET Tracers for Analysis of GPCR Ligand Engagement” (Molecules, 2021).

One assay concerns the target T1, MCHR2 (Homo sapiens, UniProt Q969V1).
T1 construct: purchased Promega (in-house HiBiT-GPCR construct library, NanoBRET)
In words: NanoBRET screen HiBiT-MCHR2 in HEK293. The assay is classed as binding. On the procedure: (§1) Each tracer candidate was screened across the entire library of HiBiT-GPCR constructs using NanoBRET as the detection modality. As depicted in Figure 4A, the specificity of interactions was evaluated through decrease in BRET due to competitive displacement of a bound tracer by excess parental compound. Each tracer was analyzed for binding to each HiBiT-GPCR fusion in the absence and in the presence of competing parental compound. Briefly, HEK293 cells were transfected with HiBiT-GPCR constructs diluted into promoterless DNA to reduce expression and maximize translocation to the cell surface. Each tracer candidate was then screened at concentrations of 1 μM and 0.1 μM across cells expressing these fusions. Cells were treated for 1.5 h with tracer either alone or in the presence of 20 μM competing parental compound (i.e., control). BRET was measured upon addition of purified LgBiT and subsequent complementation with HiBiT genetically fused to a GPCR. The specificity of interactions was assessed through a decrease in BRET signal due to competitive displacement of the bound tracer. To further gauge the robustness of these interactions, the fold response over the control (i.e., BRETtracer/BRETcontrol) was calculated. We chose a 1.5-fold response, which translates to ≥7-fold signal over noise as the minimal threshold required to score an interaction as positive.
(§2) HiBiT-GPCR DNA constructs were diluted in 10 mM Tris pH 8 to a final concentration of 0.01 μg/μL, arrayed in 96-well plates and stored at −20 °C. For transfection, HEK293 cells were suspended in Opti-MEM (without phenol red) supplemented with 2% fetal bovine serum (Seradigm) and 100 units/mL penicillin–streptomycin (Gibco) at a final concentration of 220,000 cells/mL and dispensed into white 96-well plates at 90 μL/well. Subsequent transfections and screens were carried using an Agilent Bravo Automated Liquid Handling Platform. First, the 96-well HiBiT DNA arrays were diluted 25-fold in Opti-MEM (without serum or phenol red) to a final concentration of 0.0004 μg/μL and 20 μL of the diluted DNAs were transferred into new 96-well plates. Next, promoterless carrier DNA (1 μg/μL) was diluted 25-fold (0.04 μg/μL) and then dispensed into the diluted arrays at 20 μL/well. Following brief mixing, Viafect transfection reagent (Promega) diluted 16-fold into Opti-MEM was dispensed into the plates at 40 μL/well. After mixing by pipetting, plates were incubated for 10 min on the pipetting station deck. The DNA-transfection reagent complexes were then added to plates containing cells. To facilitate the screen, 10 μL of DNA-transfection reagent complexes were added in duplicates to the top 4 and bottom 4 rows, resulting in two identical 48-well arrays per plate. Plates with transfected cells were incubated for 18–20 h at 37 °C/5% CO2. A screen of each tracer across the entire library using two different concentrations requires duplicate plates of transfected cells. Depending on the number of tracers being screened, transfections can be scaled up using the same ratios. The next day, for each tracer, four 20× screening solutions in tracer dilution buffer (Promega) were prepared: two duplicates at final concentration of 20 μM and two duplicates at a final concentration of 2 μM. […] The four resulting solutions were diluted 4-fold in Opti-MEM without serum or phenol red to generate 5× solutions (5 µM and 0.5 µM tracer +/− 100 μM competing compound). To screen the library, a BioTek MultiFlo FX liquid dispenser was used to dispense 22.5 µL of tracer solution to the top 4 rows and 22.5 µL tracer + competing compound solution to the 4 bottom rows. Plates were briefly mixed on an orbital shaker and incubated for 1.5 h at room temperature. […] Plates were briefly mixed on an orbital shaker and incubated for 15 min to allow complementation.
A general note: In BRET a luciferase serves as donor, and the signal depends on an acceptor being close.

Another assay has as its target T2, NPY5R (Homo sapiens, UniProt Q15761).
T2 construct: purchased Promega (in-house HiBiT-GPCR construct library, NanoBRET)
T2 sequence (Q15761 1-445): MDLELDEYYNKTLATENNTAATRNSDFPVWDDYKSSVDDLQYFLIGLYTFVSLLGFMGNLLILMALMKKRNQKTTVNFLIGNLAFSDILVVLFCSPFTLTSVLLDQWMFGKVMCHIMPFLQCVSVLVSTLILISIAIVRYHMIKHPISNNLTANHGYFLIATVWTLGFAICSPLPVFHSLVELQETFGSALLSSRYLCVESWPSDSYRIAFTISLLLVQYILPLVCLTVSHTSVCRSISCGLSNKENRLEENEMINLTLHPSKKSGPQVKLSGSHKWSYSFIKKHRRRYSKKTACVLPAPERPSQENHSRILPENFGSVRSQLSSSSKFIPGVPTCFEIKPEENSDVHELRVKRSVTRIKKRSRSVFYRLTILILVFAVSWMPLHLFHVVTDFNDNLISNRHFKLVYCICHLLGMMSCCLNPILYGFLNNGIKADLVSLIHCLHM
Put plainly: NanoBRET screen HiBiT-NPY5R in HEK293. The format is binding. How it is done:
as §1, §2

The mark [1] stands for this setting: tracer at 0.1μM, listed as amitriptyline-b-2-NB590.
[2] abbreviates: tracer at 1μM, listed as amitriptyline-b-2-NB590.

T1 sequence (Q969V1 whole entry): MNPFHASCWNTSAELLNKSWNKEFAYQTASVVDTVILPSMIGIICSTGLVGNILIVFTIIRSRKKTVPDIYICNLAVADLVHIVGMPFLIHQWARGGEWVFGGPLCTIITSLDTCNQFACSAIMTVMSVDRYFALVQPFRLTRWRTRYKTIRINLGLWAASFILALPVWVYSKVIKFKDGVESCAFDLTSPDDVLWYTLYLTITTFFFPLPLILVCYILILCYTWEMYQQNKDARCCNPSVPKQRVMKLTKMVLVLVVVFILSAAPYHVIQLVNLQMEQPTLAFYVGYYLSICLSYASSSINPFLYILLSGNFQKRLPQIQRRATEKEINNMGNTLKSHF

Turning to `O=C(CCOCCOCCOCCOCCNC(=O)CCc1ccc2n1[B-](F)(F)[N+]1=C(c3ccc[nH]3)C=CC1=C2)NCCCN1CCN(C2=Nc3ccccc3Oc3ccc(Cl)cc32)CC1` [Loxapine-a-2-NB590], the “NanoBRET Fold Response” value was determined as 1.02 at MCHR2 (MCHR2, tracer 0.1μM); 1.12 at MCHR2 (MCHR2, tracer 1μM); 0.96 at NPY5R (NPY5R, tracer 0.1μM); 1.09 on NPY5R (NPY5R, tracer 1μM).

Consider `CCCn1c(=O)c2[nH]c(-c3ccc(OCC(=O)NCCNC(=O)CCOCCNC(=O)c4ccc(CNC(=O)CCc5ccc6n5[B-](F)(F)[N+]5=C(c7ccc[nH]7)C=CC5=C6)cc4)cc3)nc2n(CCC)c1=O` [XAC-3-NB590], for which the “NanoBRET Fold Response” value on MCHR2 (MCHR2, tracer 0.1μM) was 0.96; on MCHR2 (MCHR2, tracer 1μM), 0.97; on NPY5R (NPY5R, tracer 0.1μM) it was 1.02; on NPY5R (NPY5R, tracer 1μM), 1.10.

Turning to `CN(C)CCC=C1c2ccccc2CCc2ccc(C(=O)NCCNC(=O)CCOCCOCCOCCOCCNC(=O)CCc3ccc4n3[B-](F)(F)[N+]3=C(c5ccc[nH]5)C=CC3=C4)cc21` [Amitriptyline-a-2-NB590], the “NanoBRET Fold Response” value came out at 0.97 at MCHR2 (tracer at 0.1μM), 1.01 on MCHR2 (tracer at 1μM), 1.03 on NPY5R (tracer at 0.1μM) and 0.99 at NPY5R (tracer at 1μM).

Consider `COc1ccccc1N1CCN(CCCCN2C(=O)c3ccc(CNC(=O)CCOCCOCCOCCOCCNC(=O)CCc4ccc5n4[B-](F)(F)[N+]4=C(c6ccc[nH]6)C=CC4=C5)cc3C2=O)CC1` [NAN-190-2-NB590], for which the “NanoBRET Fold Response” value at MCHR2 (MCHR2, tracer 0.1μM) is reported as 0.99; at MCHR2 (MCHR2, tracer 1μM), 0.94.

On to `O=C(CCc1ccc2n1[B-](F)(F)[N+]1=C(c3ccc[nH]3)C=CC1=C2)NCc1ccc(C(=O)NCCOCCOCCNCC(O)COc2cccc3ccccc23)cc1` (stereo not shown) [Propranolol-3-NB590], for which the “NanoBRET Fold Response” value at MCHR2 (MCHR2, 0.1μM) came out at 0.91; at MCHR2 (MCHR2, 1μM) it was 1.02; on NPY5R (NPY5R, 0.1μM), 0.99; at NPY5R (NPY5R, 1μM), 1.01.

With `COc1ccccc1N1CCN(CCCCN2C(=O)c3ccc(CNC(=O)CCOCCNC(=O)c4ccc(CNC(=O)CCc5ccc6n5[B-](F)(F)[N+]5=C(c7ccc[nH]7)C=CC5=C6)cc4)cc3C2=O)CC1` [NAN-190-3-NB590], the “NanoBRET Fold Response” value on MCHR2 (MCHR2, tracer 0.1μM) stood at 1.09; on MCHR2 (MCHR2, tracer 1μM), 0.72; at NPY5R (NPY5R, tracer 0.1μM) it was 1.01; at NPY5R (NPY5R, tracer 1μM), 0.97.

On to `O=C(CCc1ccc2n1[B-](F)(F)[N+]1=C(c3ccc[nH]3)C=CC1=C2)NCc1ccc(C(=O)NCCOCCC(=O)N[C@@H]2CC[C@@]3(O)[C@H]4Cc5ccc(O)c6c5[C@@]3(CCN4CC3CC3)[C@H]2O6)cc1` [Naltrexone-3-NB590], for which the “NanoBRET Fold Response” value at MCHR2 (MCHR2, tracer 0.1μM) was determined as 1.10; on MCHR2 (MCHR2, tracer 1μM), 1.01.

Turning to `CCOC(=O)c1cc(C#N)c(N2CCC(C(=O)NS(=O)(=O)Cc3ccccc3/C=C/C(=O)NCCNC(=O)CCc3ccc4n3[B-](F)(F)[N+]3=C(c5ccc[nH]5)C=CC3=C4)CC2)nc1C` [AZD1283-1-NB590], the “NanoBRET Fold Response” value on MCHR2 (MCHR2, 0.1μM) is on record as 1.04; at MCHR2 (MCHR2, 1μM), 1.06; at NPY5R (NPY5R, 0.1μM), 1.01; at NPY5R (NPY5R, 1μM), 1.03.

As for `COc1ccc2[nH]c(-c3ccc(CNC(=O)CCOCCOCCOCCOCCNC(=O)CCc4ccc5n4[B-](F)(F)[N+]4=C(c6ccc[nH]6)C=CC4=C5)cc3)c(CCNC(C)=O)c2n1` [AzomelatoninICO9-2-NB590], the “NanoBRET Fold Response” value stood at 1.29 at MCHR2 (0.1μM tracer), 1.43 at MCHR2 (1μM tracer), 0.91 on NPY5R (0.1μM tracer) and 1.07 on NPY5R (1μM tracer).

With `CC(C)N(CC[C@H](c1ccccc1)c1cc(CCNC(=O)CCOCCOCCOCCOCCNC(=O)CCc2ccc3n2[B-](F)(F)[N+]2=C(c4ccc[nH]4)C=CC2=C3)ccc1O)C(C)C` [Tolterodine-2-NB590], the “NanoBRET Fold Response” value is 1.59 on MCHR2 (MCHR2, tracer 0.1μM); 1.08 on MCHR2 (MCHR2, tracer 1μM); 0.95 on NPY5R (NPY5R, tracer 0.1μM); 0.95 on NPY5R (NPY5R, tracer 1μM).

On to `CN1CCN(C2=Nc3cc(Cl)ccc3N(CC(=O)NCCOCCOCCOCCOCCNC(=O)CCc3ccc4n3[B-](F)(F)[N+]3=C(c5ccc[nH]5)C=CC3=C4)c3ccccc32)CC1` [Clozapine-c-2-NB590], for which the “NanoBRET Fold Response” value on MCHR2 (MCHR2, 0.1μM tracer) came to 1.06; at MCHR2 (MCHR2, 1μM tracer) it was 1.01; on NPY5R (NPY5R, 0.1μM tracer), 0.99; at NPY5R (NPY5R, 1μM tracer) it was 0.97.

With `N#CN=C(NCCCOc1cccc(CN2CCCCC2)c1)NCCNC(=O)CCOCCOCCOCCOCCNC(=O)CCc1ccc2n1[B-](F)(F)[N+]1=C(c3ccc[nH]3)C=CC1=C2` [Aminopotentidine-2-NB590], the “NanoBRET Fold Response” value at MCHR2 (MCHR2, tracer 0.1μM) is 0.97; at MCHR2 (MCHR2, tracer 1μM) it was 1.03; on NPY5R (NPY5R, tracer 0.1μM), 1.04; at NPY5R (NPY5R, tracer 1μM), 0.97.

Consider `COc1ccc2c(n1)c(CCNC(C)=O)cn2CCNC(=O)CCc1ccc2n1[B-](F)(F)[N+]1=C(c3ccc[nH]3)C=CC1=C2` [Azamelatonin-1-NB590], for which the “NanoBRET Fold Response” value on MCHR2 (0.1μM tracer) was 1.45; on MCHR2 (1μM tracer) it was 0.86; at NPY5R (0.1μM tracer), 1.14; on NPY5R (1μM tracer) it was 1.09.

Turning to `CC(C)N(CC[C@H](c1ccccc1)c1cc(CCNC(=O)c2ccc(CNC(=O)CCc3ccc4n3[B-](F)(F)[N+]3=C(c5ccc[nH]5)C=CC3=C4)cc2)ccc1O)C(C)C` [Tolterodine-BZ-NB590], the “NanoBRET Fold Response” value at MCHR2 (MCHR2, tracer 0.1μM) is reported as 0.93; at MCHR2 (MCHR2, tracer 1μM), 1.02; at NPY5R (NPY5R, tracer 0.1μM), 1.05; at NPY5R (NPY5R, tracer 1μM), 0.99.

In the case of `O=C(CCc1ccc2n1[B-](F)(F)[N+]1=C(c3ccc[nH]3)C=CC1=C2)NCCOCCOCCNC(=O)OCCOCCN1CCN(C2=Nc3ccccc3Sc3ccccc32)CC1` [Quetiapine-a-2-NB590], the “NanoBRET Fold Response” value at MCHR2 (MCHR2, tracer 0.1μM) is listed as 1.03; on MCHR2 (MCHR2, tracer 1μM), 0.74; at NPY5R (NPY5R, tracer 0.1μM), 0.98; at NPY5R (NPY5R, tracer 1μM), 0.87.

As for `Cc1cc2c(s1)Nc1ccccc1N=C2N1CCN(CCCNC(=O)CCOCCOCCOCCOCCNC(=O)CCc2ccc3n2[B-](F)(F)[N+]2=C(c4ccc[nH]4)C=CC2=C3)CC1` [Olanzapine-a-2-NB590], the “NanoBRET Fold Response” value at MCHR2 (MCHR2, tracer 0.1μM) turned out to be 0.98; on MCHR2 (MCHR2, tracer 1μM) it was 1.01; on NPY5R (NPY5R, tracer 0.1μM) it was 1.00; on NPY5R (NPY5R, tracer 1μM) it was 1.01.

`CN(C)CCC=C1c2ccccc2CCc2ccc(C(=O)NCCNC(=O)CCOCCOCCOCCOCCNC(=O)CCc3ccc4n3[B-](F)(F)[N+]3=C(c5ccc[nH]5)C=CC3=C4)cc21` [Amitriptyline-b-2-NB590]: the “NanoBRET Fold Response” value on MCHR2 (setting [1]) came out at 0.85; at MCHR2 (setting [2]), 0.90; at NPY5R (setting [1]), 0.89; at NPY5R (setting [2]), 1.02.
